Measured values reported in US20240335451A1, “ACRYLAMIDE DERIVATIVES USEFUL AS ANTI-INFLAMMATORY AGENTS” (Sitryx Therapeutics Limited, priority 2021, published 2024).
pEC50, pIC50: −log10 of the molar value.

Columns and labels:
Type in all cases: cell-based
[1] = test system: IL-6 cytokine output from THP-1s; assay: THP-1 AlphaLISA IL-6 cytokine assay (differentiated THP-1 cells, LPS then nigericin); conditions: Homo sapiens, 30 min pre-incubation, LPS 24 hr, nigericin 1 hour
Protocol: (§1) Measuring Inhibitory Effects on IL-1β and IL-6 Cytokine Output from THP-1s
(§2) The cytokine inhibition profiles of compounds of formula (I) were determined in a differentiated THP-1 cell assay. All assays were performed in RPMI-1640 growth medium (Gibco), supplemented with 10% fetal bovine serum (FBS; Gibco), 1% penicillin-streptomycin and 1% sodium pyruvate unless specified otherwise. The IL-1β and IL-6 cytokine inhibition assays were each run in a background of differentiated THP-1 cells as described below. All reagents described were from Sigma-Aldrich unless specified otherwise. Compounds were prepared as 10 mM DMSO stocks.
(§3) THP-1 cells were expanded as a suspension up to 80% confluence in appropriate growth medium. Cells were harvested, suspended, and treated with an appropriate concentration of phorbol 12-myristate 13-acetate (PMA) over a 72 hr period (37° C./5% CO2).
(§4) Following 72 hrs of THP-1 cell incubation, cellular medium was removed and replaced with fresh growth media containing 1% of FBS. Working concentrations of compounds were prepared separately in 10% FBS treated growth medium and pre-incubated with the cells for 30 minutes (37° C./5% CO2). Following the 30 minute compound pre-incubation, THP-1s were treated with an appropriate concentration of LPS and the THP-1s were subsequently incubated for a 24 hr period (37° C./5% CO2). An appropriate final concentration of Nigericin was then dispensed into the THP-1 plates and incubated for 1 hour (37° C./5% CO2) before THP-1 supernatants were harvested and collected in separate polypropylene 96-well holding plates.
(§5) Reagents from each of the IL-1β and IL-6 commercial kits (Perkin Elmer) were prepared and run according to the manufacturer's instructions. Subsequently, fluorescence signal detection in a microplate reader was measured (EnVision® Multilabel Reader, Perkin Elmer).
(§6) Percentage inhibition was calculated per cytokine by normalizing the sample data to the high and low controls used within each plate (+/−LPS respectively).

[2] = test system: NRF2 (nuclear factor erythroid 2-related factor 2); assay: NRF2 activation assay (DiscoverX PathHunter NRF2 translocation kit, U2OS cells); conditions: Homo sapiens; for Emax: U2OS, normalised to dimethyl fumarate high control; for pEC50: U2OS PathHunter cells, 6 hours
[3] = test system: IL-1β cytokine output from THP-1s; assay: THP-1 AlphaLISA IL-1β cytokine assay (differentiated THP-1 cells, LPS then nigericin); conditions: Homo sapiens, 30 min pre-incubation, LPS 24 hr, nigericin 1 hour
Protocol: as §1, §2, §3, §4, §5, §6

Row | SMILES | pIC50 [1] | Emax ([2]; +GSH) [%] | Emax ([2]; −GSH) [%] | pEC50 ([2]; +GSH (30 minute compound/GSH pre-incubation)) | pEC50 ([2]; −GSH) | pIC50 [3]
1 | C=C(Cc1nc(C2(c3ccc(SC(F)(F)F)cc3)CC2)no1)C(=O)NC(C(=O)O)C(F)(F)F (stereo not drawn) [Example 28, 3,3,3-trifluoro-2-(2-((3-(1-(4-((trifluoromethyl)thio)phenyl)cyclopropyl)-1,2,4-oxadiazol-5-yl)methyl)acrylamido)propanoic acid] | 4.79 | 34 | 67 | < 4.00 | 4.50 | 5.10
2 | C=C(CC(=O)OC)C(=O)OC [dimethyl itaconate, reference compound] | < 4.00 | – | 126 | – | – | < 4.00
